Holding throughout (assay type): functional
The test system of test [1] is Rattus norvegicus. Put plainly: Analgesic activity in sc dosed rat assessed as inhibition of phenazocine-induced effect.
The test system of test [2] is Mus musculus. As to the kind of experiment: Analgesic activity in sc dosed mouse by acetylcholine writhing test.
Test [3] has as its system Rattus norvegicus. Put plainly: Analgesic activity in sc dosed rat by tail flick test. On the technique in general: Thermal pain tests record how soon the animal reacts.
Test [4] concerns Rattus norvegicus. As to the kind of experiment: Analgesic activity in sc dosed rat by intracarotid bradykinin test.
Test [5] deals with Rattus norvegicus. Put plainly: Analgesic activity in sc dosed rat assessed as inhibition of meperidine-induced effect.
Test [6] concerns Rattus norvegicus. Put plainly: Analgesic activity in sc dosed rat assessed as inhibition of morphine-induced effect.
Test [7] concerns Rattus norvegicus. As to the kind of experiment: Analgesic activity in rat at 240 mg/kg, sc by tail flick test. Particulars: route subcutaneous.
For test [8], the system named is Rattus norvegicus. Put plainly: Analgesic activity in rat at 120 mg/kg, sc by tail flick test. The following applies: route subcutaneous.
Test [9] concerns Mus musculus. As to the kind of experiment: Analgesic activity in mouse at 25 mg/kg, sc by acetylcholine writhing test. Particulars: route subcutaneous.
[10] abbreviates: Mus musculus, sc, read-out: ED50.
[11] abbreviates: Rattus norvegicus, Tail, sc, read-out: ED50.
The mark [12] stands for this setting: Rattus norvegicus, sc, read-out: ED50.

The ED50 is the dose at which the effect has come halfway, by size or by number of responders. As for `CC(=O)CC[C@]1(C)C2Cc3ccc(O)cc3[C@@]1(C)CCN2C` (mixture of isomers), the AD50 in test [1] turned out to be 40 mg/kg. The 50% effective dose (ED50) in test [2] (setting [10]) stood at 0.25 mg/kg.

On to `CCC(=O)CC[C@]1(C)C2Cc3ccc(O)cc3[C@@]1(C)CCN2C.Cl` (mixture of isomers), for which, in test [1], the AD50 is 1 mg/kg. The figures for the ED50 in [2] (setting [10]) and in test [3] (setting [11]) were 0.18 mg/kg and 0.99 mg/kg, respectively.

Consider `CCCC(=O)CC[C@]1(C)C2Cc3ccc(O)cc3[C@@]1(C)CCN2C.Cl` (mixture of isomers), for which, in test [1], the AD50 was determined as 80 mg/kg. Also, the ED50 in [2] (setting [10]) was 0.023 mg/kg; in test [3] (setting [11]), 0.099 mg/kg; in test [4] (setting [12]) it was 0.019 mg/kg.

Take `CCCCC(=O)CC[C@]1(C)C2Cc3ccc(O)cc3[C@@]1(C)CCN2C.Cl` (mixture of isomers): the AD50 in [1] is 0.1 mg/kg. For the same compound, the ED50 in test [2] (setting [10]) is 0.017 mg/kg; in [3] (setting [11]), 0.039 mg/kg; in [4] (setting [12]) it was 0.012 mg/kg.

Regarding `CCCCCC(=O)CC[C@]1(C)C2Cc3ccc(O)cc3[C@@]1(C)CCN2C.Cl` (mixture of isomers), the values for the AD50 in test [5], in [1] and in [6] were 0.19 mg/kg, 0.008 mg/kg and 0.098 mg/kg, respectively. Also, the ED50 in test [2] (setting [10]) was 0.24 mg/kg; in test [3] (setting [11]) it was 120 mg/kg; in test [4] (setting [12]), 0.043 mg/kg.

Regarding `CCCCCCC(=O)CC[C@]1(C)C2Cc3ccc(O)cc3[C@@]1(C)CCN2C.Cl` (mixture of isomers), in test [1], the AD50 amounted to 0.04 mg/kg. The ED50 in test [2] (setting [10]) was 12 mg/kg; in [3] (setting [11]) it was 120 mg/kg; in [4] (setting [12]) it was 2.2 mg/kg.

For `CC(C)C(=O)CC[C@]1(C)C2Cc3ccc(O)cc3[C@@]1(C)CCN2C.Cl` (mixture of isomers), the AD50 in test [1] was determined as 80 mg/kg. The ED50 in test [2] (setting [10]) amounted to 0.11 mg/kg; in test [3] (setting [11]), 24 mg/kg; in test [4] (setting [12]) it was 0.12 mg/kg.

For `CC(C)CC(=O)CC[C@]1(C)C2Cc3ccc(O)cc3[C@@]1(C)CCN2C.Cl` (mixture of isomers), in [1], the AD50 came to 0.01 mg/kg. The ED50 in test [2] (setting [10]) was found to be 0.019 mg/kg; in test [3] (setting [11]), 0.067 mg/kg; in test [4] (setting [12]), 0.019 mg/kg.

`CC(C)CCC(=O)CC[C@]1(C)C2Cc3ccc(O)cc3[C@@]1(C)CCN2C.Cl` (mixture of isomers): the AD50 stood at 0.73 mg/kg in [5], 0.3 mg/kg in [1] and 0.58 mg/kg in test [6]. The values for the ED50 in [2] and in test [4] (setting [12]) were 0.074 mg/kg and 0.032 mg/kg, respectively. In test [7], this compound came in with an Activity of 47%.

For the compound `CC(C)CCCC(=O)CC[C@]1(C)C2Cc3ccc(O)cc3[C@@]1(C)CCN2C` (mixture of isomers), the AD50 in test [1] worked out at 0.029 mg/kg. Besides, the ED50 was found to be 5.3 mg/kg in test [2] (setting [10]) and 120 mg/kg in [3] (setting [11]).

For the compound `COc1ccc2c(c1)[C@@]1(C)CCN(C)C(C2)[C@@]1(C)CCC(C)=O.Cl` (mixture of isomers), in test [2] (setting [10]), the ED50 is 3.5 mg/kg. The compound further showed an Activity in [8] of 66%.

On to `CCC(=O)CC[C@]1(C)C2Cc3ccc(OC)cc3[C@@]1(C)CCN2C.CS(=O)(=O)O` (mixture of isomers), for which the AD50 in test [1] came out at 1 mg/kg. Further, the ED50 came out at 1.9 mg/kg in test [2] (setting [10]) and 5.9 mg/kg in test [3] (setting [11]).

Take `CCCC(=O)CC[C@]1(C)C2Cc3ccc(OC)cc3[C@@]1(C)CCN2C.CS(=O)(=O)O` (mixture of isomers): in test [1], the AD50 turned out to be 80 mg/kg. Also, the ED50 in test [2] (setting [10]) is 0.89 mg/kg; in [3] (setting [11]), 2 mg/kg.

Consider `CCCCC(=O)CC[C@]1(C)C2Cc3ccc(OC)cc3[C@@]1(C)CCN2C.Cl` (mixture of isomers), for which the AD50 in test [1] was found to be 1 mg/kg. The ED50 is 0.63 mg/kg in test [2] (setting [10]) and 1.35 mg/kg in test [3] (setting [11]).

For `CCCCCC(=O)CC[C@]1(C)C2Cc3ccc(OC)cc3[C@@]1(C)CCN2C.Cl` (mixture of isomers), the AD50 in test [1] amounted to 10 mg/kg. In addition, the ED50 in [2] (setting [10]) is 1.5 mg/kg; in [3] (setting [11]), 30 mg/kg.

For `CCCCCCC(=O)CC[C@]1(C)C2Cc3ccc(OC)cc3[C@@]1(C)CCN2C.Cc1ccc(S(=O)(=O)O)cc1` (mixture of isomers), the AD50 in [1] is 80 mg/kg. Also, the ED50 in test [3] (setting [11]) was determined as 120 mg/kg. Further, the Activity in [9] was 20%.

`COc1ccc2c(c1)[C@@]1(C)CCN(C)C(C2)[C@@]1(C)CCC(=O)C(C)C.CS(=O)(=O)O` (mixture of isomers): the AD50 in test [1] was 80 mg/kg. Besides, in test [2] (setting [10]), the ED50 stood at 5 mg/kg. In addition, in test [8], the Activity turned out to be 42%.

Regarding `COc1ccc2c(c1)[C@@]1(C)CCN(C)C(C2)[C@@]1(C)CCC(=O)CC(C)C.CS(=O)(=O)O` (mixture of isomers), in [1], the AD50 was 80 mg/kg. The ED50 in [2] (setting [10]) came to 1 mg/kg; in test [3] (setting [11]) it was 4.3 mg/kg.

For `COc1ccc2c(c1)[C@@]1(C)CCN(C)C(C2)[C@@]1(C)CCC(=O)CCC(C)C.Cl` (mixture of isomers), in [1], the AD50 was determined as 80 mg/kg. For the same compound, the ED50 in [2] (setting [10]) amounted to 2 mg/kg; in test [3] (setting [11]), 16 mg/kg; in test [4] (setting [12]), 2.4 mg/kg.

Turning to `COc1ccc2c(c1)[C@@]1(C)CCN(C)C(C2)[C@@]1(C)CCC(=O)CCCC(C)C.Cl` (mixture of isomers), in test [1], the AD50 turned out to be 80 mg/kg. In test [2] (setting [10]), the ED50 stood at 7.5 mg/kg. In addition, the Activity in test [8] is reported as 70%.

With `CC(=O)CC[C@]1(C)C2Cc3ccc(O)cc3[C@@]1(C)CCN2C.CS(=O)(=O)O` (mixture of isomers), the figures for the ED50 in test [3] (setting [11]) and in [4] (setting [12]) were 2.5 mg/kg and 0.19 mg/kg, respectively.

`CCCCCC(=O)CC[C@]1(C)C2Cc3ccc(O)cc3[C@@]1(C)CCN2C.CS(=O)(=O)O` (single isomer, unassigned; (-)): in test [1], the AD50 is 0.005 mg/kg. Moreover, the ED50 is 0.19 mg/kg in [2], 95 mg/kg in test [3] and 0.022 mg/kg in [4].

For `CCCCCC(=O)CC[C@]1(C)C2Cc3ccc(O)cc3[C@@]1(C)CCN2C.CS(=O)(=O)O` (stereo in doubt; (+)-3e), the AD50 in test [1] was found to be 80 mg/kg. Besides, the 50% effective dose (ED50) in [2] was 11 mg/kg; in test [3] (setting [11]) it was 95 mg/kg; in test [4], 50 mg/kg.

With `CC(C)CCC(=O)CC[C@]1(C)C2Cc3ccc(O)cc3[C@@]1(C)CCN2C.Cl` (stereo in doubt; (+)-3i), the AD50 in [1] turned out to be 20 mg/kg. Besides, the values for the ED50 in test [2] and in test [3] (setting [11]) were 10 mg/kg and 120 mg/kg, respectively.

`CC(C)CCC(=O)CC[C@]1(C)C2Cc3ccc(O)cc3[C@@]1(C)CCN2C.Cl` (stereo in doubt; (-)-3i): in test [1], the AD50 came to 0.088 mg/kg. The ED50 in [2] amounted to 0.016 mg/kg. Also, the Activity in test [8] is reported as 46%.

Regarding `CO[C@@]12CC[C@@]3(C[C@@H]1[C@](C)(O)C(C)(C)C)[C@H]1Cc4ccc(O)c5c4[C@@]3(CCN1CC1CC1)[C@H]2O5` [BUPRENORPHINE], in test [1], the AD50 turned out to be 0.11 mg/kg. Moreover, the results for the ED50 in test [2] (setting [10]) and in test [4] (setting [12]) were 0.059 mg/kg and 0.004 mg/kg, respectively. Also, the Activity in test [8] was 14%.

Turning to `C[C@H]1[C@H]2Cc3ccc(O)cc3[C@]1(C)CCN2CC1CC1` [CYCLAZOCINE], the AD50 in [5] is 0.024 mg/kg; in test [1] it was 0.028 mg/kg; in [6], 0.029 mg/kg.

`CN1CC[C@]23c4c5ccc(O)c4O[C@H]2[C@@H](O)C=C[C@H]3[C@H]1C5` [MORPHINE]: the figures for the ED50 in [3] (setting [11]) and in test [4] (setting [12]) were 3.9 mg/kg and 2.3 mg/kg, respectively.

Consider `C=CCN1CC[C@]23c4c5ccc(O)c4O[C@H]2C(=O)CC[C@@]3(O)[C@H]1C5` [NALOXONE], for which the AD50 in test [5] worked out at 0.004 mg/kg; in test [1] it was 0.008 mg/kg; in test [6], 0.004 mg/kg. Moreover, the ED50 in [2] (setting [10]) was determined as 60 mg/kg.

(Values after ChEMBL document CHEMBL3244409, “(2,6-Methano-3-benzazocin-11 beta-yl)alkanones. 1. Alkylalkanones: a new series of N-methyl derivatives with novel opiate activity profiles” (1979).)
